Test results reported in article PMC2934701 (The Journal of Biological Chemistry, 2010).
Numbering of substitutions follows the chain as printed.

Tests used:
Test in all cases: Fluo-4 calcium assay, HEK293T + Galpha16gust44
Assay type in all cases: cell-based
hTAS2R16 (ssr3-hTAS2R16) [1] = molecular target: T1, hTAS2R16 (ssr3-hTAS2R16) (Homo sapiens, UniProt Q9NYV7, F93T)
T1 sequence (Q9NYV7 1-291 F93T): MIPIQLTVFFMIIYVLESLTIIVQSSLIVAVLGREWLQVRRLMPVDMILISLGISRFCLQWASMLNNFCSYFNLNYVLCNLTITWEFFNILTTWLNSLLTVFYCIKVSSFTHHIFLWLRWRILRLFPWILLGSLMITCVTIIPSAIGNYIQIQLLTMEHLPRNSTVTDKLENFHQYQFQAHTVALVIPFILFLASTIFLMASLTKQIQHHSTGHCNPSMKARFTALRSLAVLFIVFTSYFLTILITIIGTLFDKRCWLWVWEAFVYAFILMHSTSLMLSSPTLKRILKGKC

hTAS2R16 (ssr3-hTAS2R16) [2] = molecular target: T2, hTAS2R16 (ssr3-hTAS2R16) (Homo sapiens, UniProt Q9NYV7, F93L)
T2 sequence (Q9NYV7 1-291 F93L): T1 sequence (Q9NYV7 1-291 F93T) with T93L

hTAS2R16 (ssr3-hTAS2R16) [3] = molecular target: T3, hTAS2R16 (ssr3-hTAS2R16) (Homo sapiens, UniProt Q9NYV7, F93Y)
T3 sequence (Q9NYV7 1-291 F93Y): T1 sequence (Q9NYV7 1-291 F93T) with T93Y

hTAS2R16 (ssr3-hTAS2R16) [4] = molecular target: T4, hTAS2R16 (ssr3-hTAS2R16) (Homo sapiens, UniProt Q9NYV7, Q177A)
T4 sequence (Q9NYV7 1-291 Q177A): T1 sequence (Q9NYV7 1-291 F93T) with T93F, Q177A

hTAS2R16 (ssr3-hTAS2R16) [5] = molecular target: T5, hTAS2R16 (ssr3-hTAS2R16) (Homo sapiens, UniProt Q9NYV7, E86Q)
T5 sequence (Q9NYV7 1-291 E86Q): T1 sequence (Q9NYV7 1-291 F93T) with E86Q, T93F

hTAS2R16 (ssr3-hTAS2R16) [6] = molecular target: T6, hTAS2R16 (ssr3-hTAS2R16) (Homo sapiens, UniProt Q9NYV7, H181L)
T6 sequence (Q9NYV7 1-291 H181L): T1 sequence (Q9NYV7 1-291 F93T) with T93F, H181L

hTAS2R16 (ssr3-hTAS2R16) [7] = molecular target: T7, hTAS2R16 (ssr3-hTAS2R16) (Homo sapiens, UniProt Q9NYV7, Q177E)
T7 sequence (Q9NYV7 1-291 Q177E): T1 sequence (Q9NYV7 1-291 F93T) with T93F, Q177E

hTAS2R16 (ssr3-hTAS2R16) [8] = molecular target: T8, hTAS2R16 (ssr3-hTAS2R16) (Homo sapiens, UniProt Q9NYV7, F240L)
T8 sequence (Q9NYV7 1-291 F240L): T1 sequence (Q9NYV7 1-291 F93T) with T93F, F240L

- EC50 (hTAS2R16 (ssr3-hTAS2R16) [1]): 12 mM
- EC50 (hTAS2R16 (ssr3-hTAS2R16) [2]): 4.15 mM
- EC50 (hTAS2R16 (ssr3-hTAS2R16) [3]): 10 mM
- EC50 (hTAS2R16 (ssr3-hTAS2R16) [4]): 0.55 mM
- EC50 (hTAS2R16 (ssr3-hTAS2R16) [5]): 1.25 mM
- EC50 (hTAS2R16 (ssr3-hTAS2R16) [6]): 12.9 mM
- EC50 (hTAS2R16 (ssr3-hTAS2R16) [7]): 0.22 mM
- EC50 (hTAS2R16 (ssr3-hTAS2R16) [8]): > 30 mM
SMILES: OCc1ccccc1O[C@@H]1O[C@H](CO)[C@@H](O)[C@H](O)[C@H]1O [salicin]
